ChEMBL document CHEMBL5512615, “Targeting autophagy drug discovery: Targets, indications and development trends” (Eur J Med Chem, 2024)
pEC50, pIC50, pKi: −log10 of the molar value. Blank lines part the entries; values can stand above or below the molecule they belong to. Where a SMILES comes first, the peptide text is derived from it. [ ]: non-standard residue; d: D form. pY = N[C@@H](Cc1ccc(OP(=O)(O)O)cc1)C(=O)O

What was measured:
[1] = molecular target: Tumour suppressor p53/oncoprotein Mdm2 (Homo sapiens, UniProt P04637+Q00987)
Description: Inhibition of MDM2/p53 interaction (unknown origin)

Translocator protein [2] = molecular target: T1, Translocator protein (Mus musculus, UniProt P50637); experiment: Binding affinity to mouse TSPO expressed in Escherichia coli assessed as inhibition constant
Translocator protein [3] = molecular target: Translocator protein (Rattus norvegicus, UniProt P16257)
Tubulin = settings: k562
Description: Inhibition of microtubule polymerization in human K562 cells measured for 60 mins by fluorescence based analysis

cells [4] = settings: Homo sapiens, NCI-H1975
Description: Inhibition of MAPK/ERK signaling pathway in human NCI-H1975 cells

[5] = molecular target: T2, Tumour suppressor protein p53/Mdm4 (Homo sapiens, UniProt O15151+P04637)
Description: Binding affinity to MDM4/p53 interaction (unknown origin) assessed as inhibition constant

PC-12 = experiment: cells; settings: Rattus norvegicus
Description: Neuroprotective activity against rat PC12 cells assessed as decrease in H2O2-induced intracellular Ca2+ level preincubated for 12 hrs followed by H2O2-stimulation and measured after 12 hrs by Fluo-3 AM dye based flow cytometry

HCT-116 = experiment: cells; settings: Homo sapiens, HCT-116, 24 h
Description: Induction of autophagy in human HCT-116 cells assessed as increase in p62 expression upto 5 uM incubated for 24 hrs by Western blot analysis

Translocator protein [6] = molecular target: T1, Translocator protein
[7] = molecular target: T3, 5'-AMP-activated protein kinase catalytic subunit alpha-2 (Homo sapiens, UniProt P54646)
cells [8] = settings: Homo sapiens, HK-2, 6 h
Description: Downregulation of BNIP3 expression in human HK-2 cells incubated for 6 hrs by Western blot analysis

Cysteine protease ATG4B = molecular target: T4, Cysteine protease ATG4B (Homo sapiens, UniProt Q9Y4P1)
T4 sequence (Q9Y4P1 whole entry): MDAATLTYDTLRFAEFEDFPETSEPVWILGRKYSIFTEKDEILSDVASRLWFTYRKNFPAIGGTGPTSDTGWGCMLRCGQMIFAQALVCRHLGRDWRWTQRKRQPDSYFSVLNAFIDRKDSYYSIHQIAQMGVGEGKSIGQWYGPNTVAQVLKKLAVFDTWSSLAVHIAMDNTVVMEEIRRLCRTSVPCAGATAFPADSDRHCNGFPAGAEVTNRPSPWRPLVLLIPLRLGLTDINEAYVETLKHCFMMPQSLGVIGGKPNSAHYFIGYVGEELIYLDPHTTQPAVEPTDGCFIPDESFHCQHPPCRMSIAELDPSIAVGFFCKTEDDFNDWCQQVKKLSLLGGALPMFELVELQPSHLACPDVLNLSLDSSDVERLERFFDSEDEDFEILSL
Description: Inhibition of ATG4B (unknown origin) using pim-FG-PABA-AMC as substrate by fluorescence based assay

[9] = molecular target: T3, 5'-AMP-activated protein kinase catalytic subunit alpha-2; remark: listed apart in the source
Description: Agonist activity at AMPK (unknown origin)

[10] = molecular target: T5, Testis-expressed protein 264 (Homo sapiens, UniProt Q9Y6I9)
T5 sequence (Q9Y6I9 whole entry): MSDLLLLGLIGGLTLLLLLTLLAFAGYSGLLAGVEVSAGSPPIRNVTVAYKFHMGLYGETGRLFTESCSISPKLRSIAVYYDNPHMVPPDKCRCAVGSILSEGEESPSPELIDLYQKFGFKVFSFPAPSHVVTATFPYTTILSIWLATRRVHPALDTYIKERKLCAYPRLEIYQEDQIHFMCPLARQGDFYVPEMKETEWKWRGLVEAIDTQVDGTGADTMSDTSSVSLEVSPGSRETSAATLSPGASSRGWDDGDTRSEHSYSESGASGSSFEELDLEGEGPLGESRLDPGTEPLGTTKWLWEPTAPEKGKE
Description: Inhibition of TEX264 (unknown origin)

cells [11] = settings: Homo sapiens, PC-3
Description: Inhibition of V-ATPase activity in lysosomes of human PC-3 cells

[12] = molecular target: T6, Phosphatidylinositol 4,5-bisphosphate 3-kinase catalytic subunit alpha isoform (Homo sapiens, UniProt P42336)
Description: Inhibition of PI3Kalpha (unknown origin)

[13] = molecular target: T3, 5'-AMP-activated protein kinase catalytic subunit alpha-2; remark: listed apart in the source
Description: Inhibition of AMPK signalling pathway in human HepG2 cells

[14] = molecular target: T3, 5'-AMP-activated protein kinase catalytic subunit alpha-2; remark: listed apart in the source
Description: Binding affinity to AMPK (unknown origin) assessed as inhibition constant

[15] = molecular target: Phosphatidylinositol 3-kinase catalytic subunit type 3 (Homo sapiens, UniProt Q8NEB9)
Description: Inhibition of human PIK3C3 using PI as substrate by ADP-Glo assay

[16] = molecular target: T6, Phosphatidylinositol 4,5-bisphosphate 3-kinase catalytic subunit alpha isoform; remark: listed apart in the source
Description: Inhibition of PI3Kalpha (unknown origin) by kinase profiling assay

[17] = molecular target: T3, 5'-AMP-activated protein kinase catalytic subunit alpha-2; remark: listed apart in the source
Description: Inhibition of AMPK (unknown origin)

[18] = molecular target: T2, Tumour suppressor protein p53/Mdm4; remark: listed apart in the source
Description: Inhibition of MDM4/p53 (unknown origin)

[19] = molecular target: Serine/threonine-protein kinase mTOR (Homo sapiens, UniProt P42345)
Description: Inhibition of human mTORC1 incubated for 90 mins by Lanthascreen time-resolved FRET assay

SMILES: CC(C)=CCC/C(C)=C/Cc1c(O)cc2c(c1O)C(=O)C[C@@H](c1ccc(O)cc1)O2 [BONANNIONE A]
pIC50 [1]: 5.43

SMILES: COc1cc2c(cc1OC)-c1c(OC)c(OC)cc3ccnc(c13)C2=O [OXOGLAUCINE]
pIC50 (Translocator protein [3]): 6.52

SMILES: O=C(O[C@@H]1Cc2c(O)cc(O)cc2O[C@@H]1c1cc(O)c(O)c(O)c1)c1cc(O)c(O)c(O)c1 [EPIGALOCATECHIN GALLATE]
pIC50 (PC-12): 7.52

SMILES: CC(=O)N[C@@H](CC(C)C)C(=O)N[C@@H](CC(C)C)C(=O)N[C@H](C=O)CCCNC(=N)N
pIC50 (HCT-116): 5.60

SMILES: COc1ccc(-c2cc(=O)c3c(OC)c(OC)c(OC)cc3o2)cc1OC [SINENSETIN]
pIC50 [1]: 5.49

SMILES: Oc1ccc(/C=C/c2cc(O)cc(O)c2)cc1 [RESVERATROL]
pIC50 [7]: 4.30

SMILES: Clc1ccc(C(Cn2ccnc2)OCc2ccsc2Cl)c(Cl)c1 (stereo unspecified) [TIOCONAZOLE]
pIC50 (Cysteine protease ATG4B): 5.89

SMILES: C[C@]12CCC(=O)C=C1CC[C@@H]1[C@@H]2[C@@H](O)C[C@]2(C=O)[C@@H](C(=O)CO)CC[C@@H]12 [ALDOSTERONE]
pEC50 [9]: 8.89

SMILES: O=C(Nc1ccc(Oc2ccc(Cl)cc2)c(Cl)c1)c1cc(I)cc(I)c1O [RAFOXANIDE]
pIC50 [12]: 4.89

SMILES: O=c1c2ccccc2[se]n1-c1ccccc1 [EBSELEN]
pIC50 (Cysteine protease ATG4B): 6.74

SMILES: CC[C@@H]1[C@@H](C)O[C@@](O)([C@@H](C)[C@H](O)[C@H](C)[C@H]2OC(=O)/C=C/C=C/[C@H](C)[C@@H]([C@@H](C)[C@@H](O)[C@H](C)[C@@]3(O)C[C@@H](O[C@H]4C[C@H](O)[C@H](O)[C@H](C)O4)[C@H](CC)[C@@H](C)O3)OC(=O)/C=C/C=C/[C@@H]2C)C[C@H]1O[C@H]1C[C@H](O)[C@H](O)[C@H](C)O1
pIC50 (cells [4]): 8.38

SMILES: COc1ccc2cc3[n+](cc2c1OC)CCc1cc2c(cc1-3)OCO2 [BERBERINE]
pIC50 [13]: 4.92

SMILES: c1cc(-c2cnn3cc(-c4ccc(OCCN5CCCCC5)cc4)cnc23)ccn1 [DORSOMORPHIN]
pKi [14]: 6.96

SMILES: C[C@@H]1COCCN1c1cc(N2CCCC[C@@H]2C(F)(F)F)[nH]c(=O)c1
pIC50 [15]: 7.85

SMILES: CCOC(=O)c1[nH]c(Br)c(-c2ccc(OC)c(OC)c2)c1Br
pIC50 (Tubulin): 6.44

SMILES: CC[C@H](C)[C@H](NC(=O)[C@H](CCCCN)NC(=O)[C@@H](NC(=O)[C@H](CCC(N)=O)NC(=O)[C@@H](N)CCCNC(=N)N)[C@@H](C)CC)C(=O)N[C@@H](Cc1c[nH]c2ccccc12)C(=O)N[C@@H](Cc1ccccc1)C(=O)N[C@@H](CCC(N)=O)C(=O)N[C@@H](CC(N)=O)C(=O)N[C@@H](CCCNC(=N)N)C(=O)N[C@@H](CCCNC(=N)N)C(=O)N[C@@H](CCSC)C(=O)N[C@@H](CCCCN)C(=O)N[C@@H](Cc1c[nH]c2ccccc12)C(=O)N[C@@H](CCCCN)C(=O)N[C@@H](CCCCN)C(=O)N[C@@H](CO)C(=O)N[C@@H](CC(=O)O)C(=O)NCC(=O)NCC(=O)N[C@@H](Cc1ccc(OP(=O)(O)O)cc1)C(=O)N[C@@H](CCSC)C(=O)N[C@@H](CC(=O)O)C(=O)N[C@@H](CCSC)C(=O)N[C@@H](CO)C(=O)O (H-RQIKIWFQNRRMKWKKSDGG[pY]MDMS-OH)
pIC50 [16]: 4.52

SMILES: COc1ccc2cc1Oc1ccc(cc1)C[C@@H]1c3cc(c(OC)cc3CCN1C)Oc1c(OC)c(OC)cc3c1[C@@H](C2)N(C)CC3 [PHAEANTHINE]
pIC50 [1]: 6.75

SMILES: NCCCCNCCCN [SPERMIDINE]
pIC50 (cells [11]): 3.95

SMILES: C[C@H]1CCCC(=O)CCC/C=C/c2cc(O)cc(O)c2C(=O)O1 [ZEARALENONE]
pIC50 (Translocator protein [6]): 6.30

SMILES: CO/C1=C\C(C)=C\[C@@H](C)[C@@H](O)[C@@H](C)C/C(C)=C/C=C/[C@H](OC)[C@@H]([C@@H](C)[C@@H](O)[C@H](C)[C@@]2(O)C[C@@H](O)[C@H](C)[C@@H](C(C)C)O2)OC1=O [BAFILOMYCIN A1]
pIC50 (cells [11]): 10.22

SMILES: OC[C@H]1O[C@@H](Oc2ccc3c(c2)OC[C@H]2c4cc5c(cc4O[C@@H]32)OCO5)[C@H](O)[C@@H](O)[C@@H]1O [TRIFOLIRHIZIN]
pIC50 [17]: 3.30

SMILES: COC(=O)C1=C(C)NC(C)=C(C(=O)OC)C1c1ccccc1[N+](=O)[O-] [NIFEDIPINE]
pIC50 (Translocator protein [3]): 9.30

SMILES: C=CCS[S+]([O-])CC=C (stereo unspecified) [ALLICIN]
pIC50 [18]: 7.96

SMILES: CO[C@H]1C[C@@H]2CC[C@@H](C)[C@@](O)(O2)C(=O)C(=O)N2CCCC[C@H]2C(=O)O[C@H]([C@H](C)C[C@@H]2CC[C@@H](OCCO)[C@H](OC)C2)CC(=O)[C@H](C)/C=C(\C)[C@@H](O)[C@@H](OC)C(=O)[C@H](C)C[C@H](C)/C=C/C=C/C=C/1C [EVEROLIMUS]
pIC50 [19]: 6.82

Further lines, results first:

pKi (Translocator protein [2]): 9.40
SMILES: CC[C@@H](C)N(C)C(=O)c1cc2ccccc2c(-c2ccccc2Cl)n1 [(R)PK-11195]

pIC50 (Tubulin): 6.15
SMILES: COc1ccc(S(=O)(=O)Nc2cccnc2Nc2ccc(O)cc2)cc1 [ABT-751]

pIC50 (cells [4]): 5.65
SMILES: C=CC(C1=CC(=O)C(OC)=CC1=O)c1ccccc1 (stereo unspecified) [4-METHOXYDALBERGIONE]

pIC50 (Translocator protein [3]): 9.14
SMILES: CC(C(O)c1ccc(O)cc1)N1CCC(Cc2ccccc2)CC1 (stereo unspecified) [IFENPRODIL]

pKi [5]: 9.10
SMILES: CN(C)CC[C@H](CSc1ccccc1)Nc1ccc(S(=O)(=O)NC(=O)c2ccc(N3CCN(Cc4ccccc4-c4ccc(Cl)cc4)CC3)cc2)cc1[N+](=O)[O-] [ABT 737]

pIC50 (cells [4]): 8.30
SMILES: CC(=O)O[C@H]1C(=O)[C@]2(C)[C@H](O)C[C@H]3OC[C@@]3(OC(C)=O)[C@H]2[C@H](OC(=O)c2ccccc2)[C@]2(O)C[C@H](OC(=O)[C@H](O)[C@@H](NC(=O)c3ccccc3)c3ccccc3)C(C)=C1C2(C)C

pIC50 (Translocator protein [6]): 9.00
SMILES: CC(C)(C)c1ccc(C(O)CCCN2CCC(C(O)(c3ccccc3)c3ccccc3)CC2)cc1 (stereo unspecified) [TERFENADINE]

pIC50 (cells [4]): 6.52
SMILES: CC(C)Nc1cc(-c2c[nH]c(C(=O)N[C@H](CO)c3cccc(Cl)c3)c2)c(Cl)cn1 [ULIXERTINIB]

pIC50 (cells [4]): 5.68
SMILES: C=C1C(=O)O[C@@H]2/C=C(\C)CC/C=C(\C)CC[C@@H]12 [COSTUNOLIDE]

pIC50 (HCT-116): 6.52
SMILES: BrNc1nc(N/N=C\c2c[nH]c3ccccc23)nc(N2CCOCC2)n1

pIC50 (cells [8]): 8.00
SMILES: Cc1nc(C(=O)NCC(=O)O)c(O)c2ccc(Oc3ccccc3)cc12 [ROXADUSTAT]

pEC50 [9]: 6.52
SMILES: OCc1c(C2CC2)nc2ccccc2c1-c1ccc(F)cc1

pEC50 [9]: 5.29
SMILES: Oc1cc(O)c2c(c1)O[C@@]1(c3ccc(O)c(O)c3)Oc3cc(O)c4c(c3[C@@H]2[C@H]1O)O[C@H](c1ccc(O)c(O)c1)[C@@H](O)C4 [PROANTHOCYANIDIN A1]

pIC50 [10]: 8.00
SMILES: O=C(Oc1cccc(/C=N/Nc2nc(Nc3ccccc3)nc(N3CCOCC3)n2)c1)c1ccco1

pIC50 (cells [11]): 9.68
SMILES: CCN(CCO)CCCC(C)Nc1ccnc2cc(Cl)ccc12 (stereo unspecified) [HYDROXYCHLOROQUINE]

pIC50 [7]: 6.97
SMILES: CNC(=O)c1ccccc1Oc1nc(Nc2cc(OC)c(OC)c(OC)c2)ncc1Br

pIC50 (Tubulin): 6.47
SMILES: O=C1C[C@@H](c2ccc(O)cc2)Oc2cc(O)ccc21 [LIQUIRTIGENIN]

pIC50 (cells [8]): 8.70
SMILES: Cc1ccc(NC(=O)NCc2ccc3c(c2)CN(C2CCC(=O)NC2=O)C3=O)cc1Cl (stereo unspecified)

pIC50 [15]: 8.30
SMILES: Cc1[nH]c2ccccc2c1CCNCc1ccc(/C=C/C(=O)NO)cc1 [PANOBINOSTAT]

pIC50 [10]: 7.82
SMILES: CN(Cc1ccccc1)S(=O)(=O)c1cc(C(=O)O)c(NCc2ccco2)cc1Cl

pIC50 (cells [4]): 8.30
SMILES: Cn1nccc1Nc1nccc(-c2cc3c(s2)C(C)(C)N(CCN2CCOCC2)C3=O)n1 [TEMUTERKIB]

pEC50 [9]: 6.10
SMILES: N#CC1C(=O)Nc2scc(-c3ccc(-c4ccccc4O)cc3)c2C1=O (stereo unspecified)
